Results: ChEMBL document CHEMBL4480448, “In Situ Ring Contraction and Transformation of the Rhizoxin Macrocycle through an Abiotic Pathway” (J Nat Prod, 2019)
Activity calls are given as the source filed them.

Key:
Type in all cases: functional, cell-based
[1] = system: TC-32; test: Cytotoxicity against human TC32 cells assessed as reduction in cell viability at 2 uM after 48 hrs by SRB assay
[2] = system: A673; test: Cytotoxicity against human A673 cells assessed as reduction in cell viability at 2 uM after 48 hrs by SRB assay
[3] = system: SK-ES1; test: Cytotoxicity against human SK-ES-1 cells assessed as reduction in cell viability at 2 uM after 48 hrs by SRB assay
[4] = organism: Homo sapiens; test: Cytotoxicity against human SJCRH30 cells assessed as reduction in cell viability at 2 uM after 48 hrs by SRB assay
[5] = organism: Homo sapiens; test: Cytotoxicity against human D283 cells assessed as reduction in cell viability at 2 uM after 48 hrs by SRB assay
[6] = system: Hep293TT; test: Cytotoxicity against human Hep293TT cells assessed as reduction in cell viability at 2 uM after 48 hrs by SRB assay

Measured: Activity

CO[C@@H](/C(C)=C/C=C/C(C)=C/c1coc(C)n1)[C@@H](C)[C@@H]1C[C@H](O)[C@@](C)(O)[C@@H](O)/C=C/[C@@H](C)[C@H]2C[C@H](CC(=O)O2)C[C@@H]2O[C@H]2C(=O)O1
inactive: [1] | [2] | [3] | [4] | [5] | [6]

CO[C@@H](/C(C)=C/C=C/C(C)=C/c1coc(C)n1)[C@@H](C)[C@@H]1C[C@H](O)[C@@](C)(O)/C=C/[C@H](O)[C@@H](C)[C@H]2C[C@H](CC(=O)O2)C[C@@H]2O[C@H]2C(=O)O1
inactive: [1] | [2] | [3] | [4] | [5] | [6]

CO[C@@H](/C(C)=C/C=C/C(C)=C/c1coc(C)n1)[C@@H](C)[C@@H]1C[C@H](O)[C@H](C(C)=O)/C=C/[C@@H](C)[C@H]2C[C@H](CC(=O)O2)C[C@@H]2O[C@H]2C(=O)O1
inactive: [1] | [2] | [3] | [4] | [5] | [6]

CO[C@@H](/C(C)=C/C=C/C(C)=C/c1coc(C)n1)[C@@H](C)[C@@H]1C[C@H](O)[C@@](C)(O)[C@H](O)/C=C/[C@@H](C)[C@H]2C[C@H](CC(=O)O2)C[C@@H]2O[C@H]2C(=O)O1
inactive: [1] | [2] | [3] | [4] | [5] | [6]

COC(=O)C[C@H]1C[C@@H](O)[C@H](C)[C@@H](O)/C=C/[C@](C)(O)[C@@H](O)C[C@@H]([C@H](C)[C@@H](OC)/C(C)=C/C=C/C(C)=C/c2coc(C)n2)OC(=O)[C@@H]2O[C@H]2C1
inactive: [1] | [2] | [3] | [4] | [5] | [6]
